Test results reported in ChEMBL document CHEMBL3045124, “Molecular docking and in silico studies on analogues of 2-methylheptyl isonicotinate with DHDPS enzyme of Mycobacterium tuberculosis” (2013).
≈ marks a conversion by molar mass, not a printed value.

Experiments:
Assay type in all cases: functional
[1] = test system: Proteus mirabilis; experiment: Antibacterial activity against Proteus mirabilis after 24 hr by agar cup assay
[2] = test system: Shigella sp.; experiment: Antibacterial activity against Shigella sp. after 24 hr by agar cup assay
[3] = test system: Klebsiella sp.; experiment: Antibacterial activity against Klebsiella sp. after 24 hr by agar cup assay
[4] = test system: Arthrobacter sp.; experiment: Antibacterial activity against Arthrobacter sp. after 24 hr by agar cup assay
[5] = test system: Bacillus subtilis; experiment: Antibacterial activity against Bacillus subtilis after 24 hr by agar cup assay
[6] = test system: Escherichia coli; experiment: Antibacterial activity against Escherichia coli after 24 hr by agar cup assay
[7] = test system: Mycobacterium tuberculosis; experiment: Antitubercular activity against Mycobacterium tuberculosis
[8] = test system: Escherichia coli; experiment: Antibacterial activity against Escherichia coli
[9] = test system: Bacillus subtilis; experiment: Antibacterial activity against Bacillus subtilis
[10] = test system: Proteus vulgaris; experiment: Antimicrobial activity against Proteus vulgaris

Row | Compound | MIC [1] | MIC [2] | MIC [3] | MIC [4] | MIC [5] | MIC [6] | MIC [7] | MIC [8] | MIC [9] | MIC [10]
1 | CCCCCC(C)COC(=O)c1ccncc1 (centres undefined) [2-METHYL HEPTYL ISONICOTINATE] | 40 µg/mL (≈ 170 µM) | 60 µg/mL (≈ 255 µM) | 50 µg/mL (≈ 212 µM) | 40 µg/mL (≈ 170 µM) | 50 µg/mL (≈ 212 µM) | 70 µg/mL (≈ 297 µM) |  |  |  | 
2 | CCCCC[C@H](C)COC(=O)c1ccncc1 [(S)-2-METHYLHEPTYL ISONICOTINATE] |  |  |  |  |  |  | 14 µg/mL (≈ 59.5 µM) | 20 µg/mL (≈ 85 µM) | 20 µg/mL (≈ 85 µM) | 14 µg/mL (≈ 59.5 µM)
3 | NNC(=O)c1ccncc1 [ISONIAZID] | 200 µg/mL (≈ 1460 µM) | 300 µg/mL (≈ 2190 µM) | 250 µg/mL (≈ 1820 µM) | 150 µg/mL (≈ 1090 µM) | 150 µg/mL (≈ 1090 µM) | 2520 µg/mL (≈ 18400 µM) |  |  |  | 
4 | CCCCC[C@@H](C)COC(=O)c1ccncc1 [ISONICOTINIC ACID 2-METHYL-HEPTYL ESTER] |  |  |  |  |  |  | 10 µg/mL (≈ 42.5 µM) | 16 µg/mL (≈ 68 µM) | 16 µg/mL (≈ 68 µM) | 6 µg/mL (≈ 25.5 µM)
5 | CCCCOC(=O)c1ccncc1 [ISONICOTINIC ACID BUTYL ESTER] |  |  |  |  |  |  | 280 µg/mL (≈ 1560 µM) | 600 µg/mL (≈ 3350 µM) | 600 µg/mL (≈ 3350 µM) | 500 µg/mL (≈ 2790 µM)
6 | CCCCCCCOC(=O)c1ccncc1 [ISONICOTINIC ACID HEPTYL ESTER] |  |  |  |  |  |  | 16 µg/mL (≈ 72.3 µM) | 24 µg/mL (≈ 108 µM) | 24 µg/mL (≈ 108 µM) | 16 µg/mL (≈ 72.3 µM)
7 | CCCCCCOC(=O)c1ccncc1 [ISONICOTINIC ACID HEXYL ESTER] |  |  |  |  |  |  | 24 µg/mL (≈ 116 µM) | 50 µg/mL (≈ 241 µM) | 50 µg/mL (≈ 241 µM) | 36 µg/mL (≈ 174 µM)
8 | CCCCCCCCCCCCCCCCCCOC(=O)c1ccncc1 [ISONICOTINIC ACID OCTADECYL ESTER] |  |  |  |  |  |  | 320 µg/mL (≈ 852 µM) | 600 µg/mL (≈ 1600 µM) | 600 µg/mL (≈ 1600 µM) | 560 µg/mL (≈ 1490 µM)
9 | CCCCCCCCOC(=O)c1ccncc1 [ISONICOTINIC ACID OCTYL ESTER] |  |  |  |  |  |  | 8 µg/mL (≈ 34 µM) | 16 µg/mL (≈ 68 µM) | 16 µg/mL (≈ 68 µM) | 6 µg/mL (≈ 25.5 µM)
10 | CCCCCOC(=O)c1ccncc1 [ISONICOTINIC ACID PENTYL ESTER] |  |  |  |  |  |  | 10 µg/mL (≈ 51.7 µM) | 20 µg/mL (≈ 103 µM) | 20 µg/mL (≈ 103 µM) | 14 µg/mL (≈ 72.4 µM)
